# Laboratory results from ChEMBL document CHEMBL2073986, “Impaired organic anion transport in kidney and choroid plexus of organic anion transporter 3 (Oat3 (Slc22a8)) knockout mice” (J Biol Chem, 2002).
# Target: T1, Organic anion transporter 3 (Mus musculus, UniProt O88909)
# T1 sequence (O88909 whole entry): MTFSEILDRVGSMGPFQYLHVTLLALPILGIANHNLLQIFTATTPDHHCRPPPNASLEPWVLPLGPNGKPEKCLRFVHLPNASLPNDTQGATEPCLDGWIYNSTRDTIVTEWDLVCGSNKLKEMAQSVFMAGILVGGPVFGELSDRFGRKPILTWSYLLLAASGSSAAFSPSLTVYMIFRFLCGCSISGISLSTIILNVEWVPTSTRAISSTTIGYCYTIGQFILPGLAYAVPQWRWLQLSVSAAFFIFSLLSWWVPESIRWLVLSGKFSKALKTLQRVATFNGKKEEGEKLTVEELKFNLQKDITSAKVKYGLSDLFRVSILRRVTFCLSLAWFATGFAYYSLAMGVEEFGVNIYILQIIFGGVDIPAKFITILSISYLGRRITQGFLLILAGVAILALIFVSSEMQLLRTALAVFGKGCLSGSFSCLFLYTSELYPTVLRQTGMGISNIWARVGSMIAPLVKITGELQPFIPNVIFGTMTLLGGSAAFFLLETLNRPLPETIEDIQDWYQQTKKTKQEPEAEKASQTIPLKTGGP
# Assay: TP_TRANSPORTER: uptake in Xenopus laevis oocytes
# Format: functional, cell-based
# Conditions: oocyte
row,SMILES,Activity
1,Nc1ccc(C(=O)NCC(=O)O)cc1 [AMINOHIPPURIC ACID],substrate [+]
2,C[C@]12CC[C@@H]3c4ccc(OS(=O)(=O)O)cc4CC[C@H]3[C@@H]1CCC2=O [ESTRONE SULFURIC ACID],substrate [+]
